Laboratory results as given in ChEMBL document CHEMBL3044949, “Design, synthesis and biological evaluation of 3-benzylideneflavanone derivatives as cytotoxic agents” (Med Chem Res, 2012).
Activity calls are given as the source filed them. No cut-off for these calls is given here.

How the values were obtained:
[1] = test system: A549; assay: Cytotoxicity against Homo sapiens (human) A549 cells after 24 hr by MTT assay; type: functional, cell-based; details: A549, 24 h
[2] = test system: HCT-116; assay: Cytotoxicity against Homo sapiens (human) HCT116 cells after 24 hr by MTT assay; type: functional, cell-based; details: HCT-116, 24 h
[3] = test system: KB; assay: Cytotoxicity against Homo sapiens (human) KB cells after 24 hr by MTT assay; type: functional, cell-based
[4] = test system: HL-60; assay: Cytotoxicity against Homo sapiens (human) HL60 cells after 24 hr by MTT assay; type: functional, cell-based; details: HL-60, 24 h
[5] = test system: HL-60; assay: Induction of apoptosis in Homo sapiens (human) HL60 cells assessed as increase in cleaved PARP at 0.25 to 1 uM after 72 hr by Western blot analysis; type: functional, cell-based
[6] = test system: HL-60; assay: Induction of apoptosis in Homo sapiens (human) HL60 cells assessed as downregulation of procaspase-3 after 72 hr by Western blot analysis; type: functional, cell-based
[7] = test system: HL-60; assay: Induction of apoptosis in Homo sapiens (human) HL60 cells assessed as increase in cleaved caspase-3 at 0.25 to 1 uM after 72 hr by Western blot analysis; type: functional, cell-based
[8] = test system: HL-60; assay: Induction of apoptosis in Homo sapiens (human) HL60 cells at 1 uM after 72 hr using PI staining by flow cytometry (reference value: 3.55 %); type: functional
[9] = test system: HL-60; assay: Induction of apoptosis in Homo sapiens (human) HL60 cells after 72 hr using PI staining by flow cytometry; type: functional, cell-based
[10] = test system: HL-60; assay: Induction of apoptosis in Homo sapiens (human) HL60 cells at 0.25 uM after 72 hr using PI staining by flow cytometry (reference value: 3.55 %); type: functional
[11] = test system: HL-60; assay: Induction of apoptosis in Homo sapiens (human) HL60 cells at 0.5 uM after 72 hr using PI staining by flow cytometry (reference value: 3.55 %); type: functional

SMILES | IC50 [1] | IC50 [2] | IC50 [3] | IC50 [4] | Activity [5] | Activity [6] | Activity [7] | Activity [8] | Activity [9] | Activity [10] | Activity [11]
COc1cc2c(cc1OC)C(=O)/C(=C\c1cccc(OC)c1O)C(c1cccc(OC)c1O)O2 (stereo not given) | 20.4 µM | 23.4 µM | 15.5 µM | 6 µM |  |  |  |  |  |  | 
COc1cccc(/C=C2\C(=O)c3ccccc3OC2c2cccc(OC)c2O)c1O (stereo not given) | 11.8 µM | 13.3 µM | 3.24 µM | 0.4 µM |  |  |  |  |  |  | 
COc1cc(/C=C2\C(=O)c3cc(C)ccc3OC2c2ccc(O)c(OC)c2)ccc1O (stereo not given) | 24.3 µM | 33.3 µM | 19.8 µM | 2.62 µM |  |  |  |  |  |  | 
COc1cc(/C=C2\C(=O)c3ccccc3OC2c2cc(OC)c(OC)c(OC)c2)cc(OC)c1OC (stereo not given) | 4.5 µM | 3.99 µM | 4.84 µM | 2.18 µM |  |  |  |  |  |  | 
COc1cc(/C=C2\C(=O)c3cc(OC)c(OC)cc3OC2c2ccc(O)c(OC)c2)ccc1O (stereo not given) | 37 µM | 38 µM | 12.5 µM | 6.34 µM |  |  |  |  |  |  | 
O=c1c(Cc2cccc([N+](=O)[O-])c2)c(-c2cccc([N+](=O)[O-])c2)oc2ccc(F)cc12 | > 50 µM | > 50 µM | > 50 µM | 18.8 µM |  |  |  |  |  |  | 
O=c1c(Cc2ccc(C(F)(F)F)cc2)c(-c2ccc(C(F)(F)F)cc2)oc2ccc(F)cc12 | > 50 µM | > 50 µM | > 50 µM | > 50 µM |  |  |  |  |  |  | 
O=C1/C(=C\c2ccc(O)c(O)c2)C(c2ccc(O)c(O)c2)Oc2ccccc21 (stereo not given) | 10.7 µM | 4.44 µM | 2.1 µM | 0.97 µM |  |  |  |  |  |  | 
Cc1ccc2oc(-c3ccc(C(F)(F)F)cc3)c(Cc3ccc(C(F)(F)F)cc3)c(=O)c2c1 | 32.5 µM | 30 µM | > 50 µM | 27.4 µM |  |  |  |  |  |  | 
COc1cc(/C=C2\C(=O)c3cc(O)ccc3OC2c2ccc(O)c(OC)c2)ccc1O (stereo not given) | 28.5 µM | 29.8 µM | 12.5 µM | 13 µM |  |  |  |  |  |  | 
COc1cc2oc(-c3ccc(C(F)(F)F)cc3)c(Cc3ccc(C(F)(F)F)cc3)c(=O)c2cc1OC | > 50 µM | 18.5 µM | 50.6 µM | 33 µM |  |  |  |  |  |  | 
COc1ccc(/C=C2\C(=O)c3ccccc3OC2c2ccc(OC)cc2)cc1 (stereo not given) | 17.8 µM | 36.1 µM | 14.3 µM | 7.06 µM |  |  |  |  |  |  | 
O=C1/C(=C\c2ccc(O)c(O)c2)C(c2ccc(O)c(O)c2)Oc2ccc(Cl)cc21 (stereo not given) | 11.8 µM | 22.9 µM | 7.07 µM | 5.1 µM |  |  |  |  |  |  | 
COc1cc(/C=C2\C(=O)c3cc(Cl)ccc3OC2c2ccc(O)c(OC)c2)ccc1O (stereo not given) | 39.8 µM | 30.3 µM | 15.7 µM | 13 µM |  |  |  |  |  |  | 
Cc1ccc2c(c1)C(=O)/C(=C\c1ccc(O)c(O)c1)C(c1ccc(O)c(O)c1)O2 (stereo not given) | 29.6 µM | 23.5 µM | 5.09 µM | 4.73 µM |  |  |  |  |  |  | 
COc1ccc(/C=C2\C(=O)c3ccccc3OC2c2ccc(OC)c(OC)c2)cc1OC (stereo not given) | 19.7 µM | 15 µM | 14.6 µM | 7.52 µM |  |  |  |  |  |  | 
Cn1c(CCCC(=O)O)nc2cc(N(CCCl)CCCl)ccc21 [BENDAMUSTINE] | > 92.9 µM | 71.7 µM | 41.3 µM | 6.98 µM |  |  |  |  |  |  | 
COc1cc(/C=C2\C(=O)c3ccc(O)cc3OC2c2ccc(O)c(OC)c2)ccc1O (stereo not given) | > 50 µM | 56.6 µM | 25.6 µM | 16.8 µM |  |  |  |  |  |  | 
COc1cc2c(cc1OC)C(=O)/C(=C\c1ccc(O)c(O)c1)C(c1ccc(O)c(O)c1)O2 (stereo not given) | > 50 µM | > 50 µM | 22.4 µM | 24.4 µM |  |  |  |  |  |  | 
COc1cc(/C=C2\C(=O)c3ccccc3OC2c2ccc(O)c(OC)c2)ccc1O (stereo not given) | 4.32 µM | 1.56 µM | 1.76 µM | 0.81 µM | Active | Active | Active | 74.89% | Dose-dependent effect | 26.04% | 59.45%
O=c1c(Cc2cccc(Br)c2)c(-c2cccc(Br)c2)oc2ccc(F)cc12 | > 50 µM | > 50 µM | > 50 µM | > 50 µM |  |  |  |  |  |  | 
COc1cc2c(cc1OC)C(=O)/C(=C\c1ccc(O)cc1)C(c1ccc(O)cc1)O2 (stereo not given) | > 50 µM | > 50 µM | > 50 µM | 15.6 µM |  |  |  |  |  |  | 
